Assay results published in US12077503B2, “Substituted cyclic amides and their use as herbicides” (FMC CORPORATION, priority 2015, dated 2024).

What was measured:
Format in all cases: in vivo
rice (Oryra sativa) = test: Test B flooded paddy test; conditions: Flood, 250 g ai/ha; 0 to 100 scale where 0 is no effect and 100 is complete control; 13 to 15 d
Procedure, shortened: (§1)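 Visual ratings (0 none to 100 complete control) are relative to untreated plants, taken 13–15 d after treatment in a greenhouse. Test material went straight into floodwater standing 3 cm above the soil, kept constant, on plants at the 2-leaf stage.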

[1] = tested on: sedge, umbrella (small-flower umbrella sedge, Cyperus difformis); test: Test B flooded paddy test; conditions: Flood, 250 g ai/ha; 0 to 100 scale where 0 is no effect and 100 is complete control; 13 to 15 d
Procedure, shortened: as §1

[2] = tested on: ducksalad (Heteranthera limosa); test: Test B flooded paddy test; conditions: Flood, 250 g ai/ha; 0 to 100 scale where 0 is no effect and 100 is complete control; 13 to 15 d
Procedure, shortened: as §1

[3] = tested on: barnyardgrass (Echinochloa crus-galli); test: Test B flooded paddy test; conditions: Flood, 250 g ai/ha; 0 to 100 scale where 0 is no effect and 100 is complete control; 13 to 15 d
Procedure, shortened: as §1

[4] = tested on: pigweed (Amaranthus retroflexus); test: Test A postemergence
Procedure, shortened: (§2)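 Treatment is preemergence as a directed soil spray after planting, or postemergence at the one- to two-leaf stage, with test chemical in a non-phytotoxic solvent mixture plus surfactant. Plants stay in the greenhouse about 10 d before visual injury scoring on a 0 to 100 scale versus untreated controls.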

corn (Zea mays) = test: Test A postemergence
Procedure, shortened: as §2

Kochia (Kochia scoparia) [5] = test: Test A postemergence
Procedure, shortened: as §2

[6] = tested on: giant foxtail (Setaria faberii); test: Test A postemergence
Procedure, shortened: as §2

[7] = tested on: blackgrass (Alopecurus myosuroides); test: Test A postemergence
Procedure, shortened: as §2

[8] = tested on: ragweed (common ragweed, Ambrosia elatior); test: Test A postemergence
Procedure, shortened: as §2

[9] = tested on: wheat (Triticum aestivum); test: Test A postemergence
Procedure, shortened: as §2

[10] = tested on: barnyardgrass (Echinochloa crus-galli); test: Test A postemergence
Procedure, shortened: as §2

[11] = tested on: Galium (catchweed bedstraw, Galium aparine); test: Test A postemergence
Procedure, shortened: as §2

[12] = tested on: ryegrass, Italian (Italian ryegrass, Lolium multiflorum); test: Test A postemergence
Procedure, shortened: as §2

[13] = tested on: pigweed (Amaranthus retroflexus); test: Test A preemergence; conditions: for Pigweed plant response rating (0 to 100 scale, 0 is no effect, 100 is complete control): visual injury approx. 10 d
Kochia (Kochia scoparia) [14] = test: Test A preemergence; conditions: for Kochia plant response rating (0 to 100 scale, 0 is no effect, 100 is complete control): visual injury approx. 10 d
Procedure, shortened: as §2

[15] = tested on: giant foxtail (Setaria faberii); test: Test A preemergence; conditions: for Foxtail, Giant plant response rating (0 to 100 scale, 0 is no effect, 100 is complete control): visual injury approx. 10 d
Procedure, shortened: as §2

[16] = tested on: ragweed (common ragweed, Ambrosia elatior); test: Test A preemergence; conditions: for Ragweed plant response rating (0 to 100 scale, 0 is no effect, 100 is complete control): visual injury approx. 10 d
Procedure, shortened: as §2

[17] = tested on: barnyardgrass (Echinochloa crus-galli); test: Test A preemergence; conditions: for Barnyardgrass plant response rating (0 to 100 scale, 0 is no effect, 100 is complete control): visual injury approx. 10 d
Procedure, shortened: as §2

[18] = tested on: ryegrass, Italian (Italian ryegrass, Lolium multiflorum); test: Test A preemergence; conditions: for Ryegrass, Italian plant response rating (0 to 100 scale, 0 is no effect, 100 is complete control): visual injury approx. 10 d
Procedure, shortened: as §2

[19] = 125 g ai/ha, postemergence, visual injury rating on 0 to 100 scale (0 no effect, 100 complete control), approx. 10 d
[20] = Postemergence, 500 g ai/ha, 0 to 100 scale where 0 is no effect and 100 is complete control
[21] = 125 g ai/ha, Preemergence, visual injury after approximately 10 d, 0 to 100 scale where 0 is no effect and 100 is complete control
[22] = 125 g ai/ha, postemergence, visual rating after approx. 10 d, 0 to 100 scale (0 no effect, 100 complete control)
[23] = 500 g ai/ha, postemergence, visual injury, 0 to 100 scale (0 no effect, 100 complete control), approx. 10 d
[24] = 500 g ai/ha, preemergence, 0 to 100 scale, 0 = no effect, 100 = complete control

Question: With `CS(=O)(=O)c1ccccc1NC(=O)C1C(=O)NCC1c1ccc(C2CC2)cc1` (racemic) [Compound 502] as the molecule, how does the “Plant response rating, Rice” value (rice (Oryra sativa)) read?
Answer: 0

Question: And the “Plant response rating, Sedge, Umbrella” value [1]?
Answer: 0

Question: What about the “Plant response rating, Ducksalad” value [2] of the same molecule?
Answer: 70

Question: And the “Plant response rating, Barnyardgrass” value [3]?
Answer: 0

Question: And the “Pigweed plant response rating” value [4, 19]?
Answer: 0

Question: And the “Plant response rating, Pigweed” value [4, 20]?
Answer: 0

Question: And the “Corn plant response rating” value (corn (Zea mays); [19])?
Answer: 0

Question: What about the “Plant response rating, Corn” value (corn (Zea mays); [20]) of the same molecule?
Answer: 30

Question: And the “Kochia plant response rating” value (Kochia (Kochia scoparia) [5]; [19])?
Answer: 0

Question: What about the “Plant response rating, Kochia” value (Kochia (Kochia scoparia) [5]; [20]) of the same molecule?
Answer: 20

Question: What about the “Foxtail, Giant plant response rating” value [6, 19] of the same molecule?
Answer: 20

Question: And the “Plant response rating, Foxtail, Giant” value [6, 20]?
Answer: 50

Question: And the “Blackgrass plant response rating” value [7, 19]?
Answer: 0

Question: What about the “Plant response rating, Blackgrass” value [7, 20] of the same molecule?
Answer: 20

Question: What about the “Ragweed plant response rating” value [8, 19] of the same molecule?
Answer: 0

Question: And the “Plant response rating, Ragweed” value [8, 20]?
Answer: 0

Question: What about the “Wheat plant response rating” value [9, 19] of the same molecule?
Answer: 0

Question: And the “Plant response rating, Wheat” value [9, 20]?
Answer: 0

Question: And the “Barnyardgrass plant response rating” value [10, 19]?
Answer: 0

Question: And the “Plant response rating, Barnyardgrass” value [10, 20]?
Answer: 60

Question: And the “Galium plant response rating” value [11, 19]?
Answer: 20

Question: And the “Plant response rating, Galium” value [11, 20]?
Answer: 50

Question: And the “Ryegrass, Italian plant response rating” value [12, 19]?
Answer: 0

Question: And the “Plant response rating, Ryegrass, Italian” value [12, 20]?
Answer: 30

Question: And the “Plant response rating, Pigweed” value [13, 21]?
Answer: 0

Question: And the “Pigweed plant response rating (0 to 100 scale, 0 is no effect, 100 is complete control)” value ([13]; Preemergence, 500 g ai/ha)?
Answer: 30

Question: And the “Plant response rating, Kochia” value (Kochia (Kochia scoparia) [14]; [21])?
Answer: 0

Question: What about the “Kochia plant response rating (0 to 100 scale, 0 is no effect, 100 is complete control)” value (Kochia (Kochia scoparia) [14]; Preemergence, 500 g ai/ha) of the same molecule?
Answer: 70

Question: And the “Plant response rating, Foxtail, Giant” value [15, 21]?
Answer: 80

Question: What about the “Foxtail, Giant plant response rating (0 to 100 scale, 0 is no effect, 100 is complete control)” value ([15]; Preemergence, 500 g ai/ha) of the same molecule?
Answer: 90

Question: What about the “Plant response rating, Ragweed” value [16, 21] of the same molecule?
Answer: 0

Question: What about the “Ragweed plant response rating (0 to 100 scale, 0 is no effect, 100 is complete control)” value ([16]; Preemergence, 500 g ai/ha) of the same molecule?
Answer: 50

Question: What about the “Plant response rating, Barnyardgrass” value [17, 21] of the same molecule?
Answer: 0

Question: What about the “Barnyardgrass plant response rating (0 to 100 scale, 0 is no effect, 100 is complete control)” value ([17]; Preemergence, 500 g ai/ha) of the same molecule?
Answer: 60

Question: What about the “Plant response rating, Ryegrass, Italian” value [18, 21] of the same molecule?
Answer: 0

Question: What about the “Ryegrass, Italian plant response rating (0 to 100 scale, 0 is no effect, 100 is complete control)” value ([18]; Preemergence, 500 g ai/ha) of the same molecule?
Answer: 30

Question: What does the source list for `C#Cc1cccc(C2CNC(=O)C2C(=O)Nc2cccc(F)c2F)c1` (racemic) [Compound 677]?
Answer: Plant response rating, Rice (rice (Oryra sativa)): 0; Plant response rating, Sedge, Umbrella [1]: 0; Plant response rating, Ducksalad [2]: 100; Plant response rating, Barnyardgrass [3]: 30; Plant response rating, Pigweed [4, 22]: 0; Plant response rating, Pigweed [4, 23]: 20; Plant response rating, Corn (corn (Zea mays); [22]): 0; Plant response rating, Corn (corn (Zea mays); [23]): 40; Plant response rating, Kochia (Kochia (Kochia scoparia) [5]; [22]): 0; Plant response rating, Kochia (Kochia (Kochia scoparia) [5]; [23]): 40; Plant response rating, Foxtail, Giant [6, 22]: 20; Plant response rating, Foxtail, Giant [6, 23]: 70; Plant response rating, Blackgrass [7, 22]: 0; Plant response rating, Blackgrass [7, 23]: 20; Plant response rating, Ragweed [8, 22]: 0; Plant response rating, Ragweed [8, 23]: 30; Plant response rating, Wheat [9, 22]: 0; Plant response rating, Wheat [9, 23]: 20; Plant response rating, Barnyardgrass [10, 22]: 80; Plant response rating, Barnyardgrass [10, 23]: 90; Plant response rating, Galium [11, 22]: 0; Plant response rating, Galium [11, 23]: 40; Plant response rating, Ryegrass, Italian [12, 22]: 0; Plant response rating, Ryegrass, Italian [12, 23]: 30; Plant response rating, Pigweed [13, 21]: 0; Plant response rating, Pigweed [13, 24]: 0; Plant response rating, Kochia (Kochia (Kochia scoparia) [14]; [21]): 20; Plant response rating, Kochia (Kochia (Kochia scoparia) [14]; [24]): 40; Plant response rating, Foxtail, Giant [15, 21]: 40; Plant response rating, Foxtail, Giant [15, 24]: 90; Plant response rating, Ragweed [16, 21]: 0; Plant response rating, Ragweed [16, 24]: 0; Plant response rating, Barnyardgrass [17, 21]: 60; Plant response rating, Barnyardgrass [17, 24]: 90; Plant response rating, Ryegrass, Italian [18, 21]: 20; Plant response rating, Ryegrass, Italian [18, 24]: 40

Question: What does the source list for `O=C1NCC(c2cc(C(F)(F)F)cc(C(F)(F)F)c2)C1C(=O)Nc1cccc(F)c1F` (stereo not drawn) [Compound 588]?
Answer: Plant response rating, Rice (rice (Oryra sativa)): 30; Plant response rating, Sedge, Umbrella [1]: 0; Plant response rating, Ducksalad [2]: 70; Plant response rating, Barnyardgrass [3]: 30; Plant response rating, Pigweed [4, 22]: 20; Plant response rating, Pigweed [4, 20]: 40; Plant response rating, Corn (corn (Zea mays); [22]): 0; Plant response rating, Corn (corn (Zea mays); [20]): 70; Plant response rating, Kochia (Kochia (Kochia scoparia) [5]; [22]): 0; Plant response rating, Kochia (Kochia (Kochia scoparia) [5]; [20]): 70; Plant response rating, Foxtail, Giant [6, 22]: 80; Plant response rating, Foxtail, Giant [6, 20]: 80; Plant response rating, Blackgrass [7, 22]: 20; Plant response rating, Blackgrass [7, 20]: 50; Plant response rating, Ragweed [8, 22]: 0; Plant response rating, Ragweed [8, 20]: 50; Plant response rating, Wheat [9, 22]: 0; Plant response rating, Wheat [9, 20]: 40; Plant response rating, Barnyardgrass [10, 22]: 80; Plant response rating, Barnyardgrass [10, 20]: 80; Plant response rating, Galium [11, 22]: 0; Plant response rating, Galium [11, 20]: 30; Plant response rating, Ryegrass, Italian [12, 22]: 0; Plant response rating, Ryegrass, Italian [12, 20]: 50; Plant response rating, Pigweed [13, 21]: 0; Pigweed plant response rating (0 to 100 scale, 0 is no effect, 100 is complete control) ([13]; Preemergence, 500 g ai/ha): 0; Plant response rating, Kochia (Kochia (Kochia scoparia) [14]; [21]): 0; Kochia plant response rating (0 to 100 scale, 0 is no effect, 100 is complete control) (Kochia (Kochia scoparia) [14]; Preemergence, 500 g ai/ha): 0; Plant response rating, Foxtail, Giant [15, 21]: 90; Foxtail, Giant plant response rating (0 to 100 scale, 0 is no effect, 100 is complete control) ([15]; Preemergence, 500 g ai/ha): 90; Plant response rating, Ragweed [16, 21]: 0; Ragweed plant response rating (0 to 100 scale, 0 is no effect, 100 is complete control) ([16]; Preemergence, 500 g ai/ha): 0; Plant response rating, Barnyardgrass [17, 21]: 90; Barnyardgrass plant response rating (0 to 100 scale, 0 is no effect, 100 is complete control) ([17]; Preemergence, 500 g ai/ha): 90; Plant response rating, Ryegrass, Italian [18, 21]: 80; Ryegrass, Italian plant response rating (0 to 100 scale, 0 is no effect, 100 is complete control) ([18]; Preemergence, 500 g ai/ha): 50
